Measured values as given in patent US7307079B2, “1,3,5-Triazine derivatives as ligands for human adenosine-A3 receptors” (Solvay Pharmaceuticals, B.V., priority 2002, dated 2007).

Biological target: T1, human adenosine-A3 receptor (Homo sapiens, UniProt P0DMS8)
T1 construct: expressed in transfected cells; membrane preparations
T1 sequence (P0DMS8 1-318): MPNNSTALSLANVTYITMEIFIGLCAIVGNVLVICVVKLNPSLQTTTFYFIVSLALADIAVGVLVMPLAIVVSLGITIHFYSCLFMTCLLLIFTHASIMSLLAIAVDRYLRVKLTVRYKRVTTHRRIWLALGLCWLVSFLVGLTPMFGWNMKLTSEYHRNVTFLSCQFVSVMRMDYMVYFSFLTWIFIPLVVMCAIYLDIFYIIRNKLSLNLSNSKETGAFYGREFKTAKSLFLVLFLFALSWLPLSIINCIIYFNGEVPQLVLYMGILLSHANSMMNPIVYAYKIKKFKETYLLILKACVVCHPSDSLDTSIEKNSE
Assay: Receptor binding to human adenosine-A3 receptors ([125I]-AB-MECA displacement, HEK 293 membranes)
Method: Receptor Binding to Human Adenosine-A3 Receptors
Affinity of the compounds for human adenosine-A3 receptors was determined using the receptor binding assay described by C. A. Salvatore et al.: Molecular cloning and characterization of the human A3 adenosine receptor, Proc. Natl. Acad. Sci. USA, 90, 10365-10369, 1993. Briefly, membrane preparations were obtained from human recombinant (HEK 293) cells in which the human adenosine-A3 receptor was stably expressed. Membranes were incubated at 22° C. for 90 minutes with [^125l]-AB-MECA in the absence or presence of testcompounds in a concentration range from 10 μM down to 0.1 nM, diluted in a suitable buffer. Separation of bound radioactivity from free was done by filtration through Packard GF/B glass fiber filters with several washings with ice-cold buffer using a Packard cell harvester. Bound radioactivity was measured with a scintillation counter (Topcount, Packard) using a liquid scintillation cocktail (Microscint 0, Packard). Measured radioactivity was plotted against the concentration of the displacing test compound and displacement curves were calculated by four-parameter logistic regression, resulting in IC50 values, i.e. that concentration of displacing compound by which 50% of the radioligand is displaced. […]

Ki ([125I]-AB-MECA, membranes of HEK 293 cells expressing human A3, 22° C., 90 minutes, read-out: affinity for human adenosine-A3 receptors pKi (converted)): 1 nM | affinity for human adenosine-A3 receptors (in words) (binding assay, result stated in words): highly active
Compound: C[C@@H](Nc1nc(Cl)nc(Nc2ccc3c(c2)OCO3)n1)[C@@H](O)c1ccccc1 [formula (9), (1S,2R)-2-{[4-chloro-6-(3,4-methylenedioxy-phenylamino)-[1,3,5]triazin-2-yl]-amino}-1-phenyl-propan-1-ol]
